Values quoted from earlier work as cited in US20260263387A1, “INTRANASAL EPINEPHRINE FORMULATIONS AND METHODS OF USE” (ARS Pharmaceuticals Operations, Inc., priority 2024, published 2026).

## CNC[C@H](O)c1ccc(O)c(O)c1 [epinephrine, (R)-4-(1-Hydroxy-2-(methylamino)ethyl)benzene-1,2-diol]
Intranasal dose level of 2.5 mg and below (0.3 mg, 0.6 mg, 1.25 mg, or 2.5 mg)
  blood level of epinephrine: no blood level
intranasal, Srisawat
  significant systemic absorption of epinephrine via the IN route: observed only at 5 mg
